Tested on: breast cancer cell lines
Test: DACH1 mRNA expression after methylation inhibitor treatment
Assay type: cell-based
Settings: different breast cancer cell lines; data not shown
From the text: DNA methylation is a common mechanism leading to tumor suppressor inactivation.

`Nc1ncn([C@H]2C[C@H](O)[C@@H](CO)O2)c(=O)n1` [5-aza-2′-deoxycytidine] was tested, and the “DACH1 mRNA expression” value was “induced DACH1 mRNA expression”.

Source: US20130011411A1, “METHODS AND COMPOSITIONS FOR THE DIAGNOSIS, PROGNOSIS, AND TREATMENT OF CANCER” (priority 2010, published 2013)
